The supplement of paper PMC10307832

Legend:
Test in all cases: relative viability (nuclei count vs DMSO), 5 days (fraction); higher = more cells survive
[1] = compound: C1CC(C2=C(C1)C3=C(N2)C=CC(=C3)Cl)C(=O)N [Selisistat] + CS(=O)(=O)N1CCN(Cc2cc3nc(-c4cccc5[nH]ncc45)nc(N4CCOCC4)c3s2)CC1 [Pictilisib] (partner 1 µM)
Summary of the method: (§1)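 Relative viability divides the nuclei count in treated wells by that in vehicle wells. Lung cancer cell lines were seeded in 1536-well plates, dosed by pin tool the next day, and fixed and stained after 5 days in one step with final 0.05% Triton X-100, 1% formaldehyde and 1 ug/ml Hoechst. Dosing was a single drug or a fixed anchor-drug dose plus five library-drug doses (not always all listed) in √10 steps, and values are medians of duplicate plates imaged at 4×.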

[2] = compound: c1ccc2c(CCNc3ccc(Nc4ccncc4)cc3)c[nH]c2c1 [Serdemetan] + Cc1nc(Nc2ncc(C(=O)Nc3c(C)cccc3Cl)s2)cc(N2CCN(CCO)CC2)n1 [Dasatinib] (partner 0.075 µM)
Summary of the method: as §1

[3] = compound: C1CC(C2=C(C1)C3=C(N2)C=CC(=C3)Cl)C(=O)N [Selisistat] + COc1cccc2cc(-c3nc([C@H]4CC[C@H](C(=O)O)CC4)n4ncnc(N)c34)[nH]c12 [OSI-027] (partner 0.5 µM)
Summary of the method: as §1

[4] = compound: c1ccc2c(CCNc3ccc(Nc4ccncc4)cc3)c[nH]c2c1 [Serdemetan] + CS(=O)(=O)CCNCc1ccc(-c2ccc3ncnc(Nc4ccc(OCc5cccc(F)c5)c(Cl)c4)c3c2)o1 [Lapatinib] (partner 2 µM)
Summary of the method: as §1

Cell Line	relative viability ([1]; first compound 0.4 µM)	relative viability ([1]; first compound 1.265 µM)	relative viability ([1]; first compound 4 µM)	relative viability ([1]; first compound 12.65 µM)	relative viability ([1]; first compound 40 µM)	relative viability ([2]; first compound 0.04 µM)	relative viability ([2]; first compound 0.1265 µM)	relative viability ([2]; first compound 0.4 µM)	relative viability ([2]; first compound 4 µM)	relative viability ([3]; first compound 0.4 µM)	relative viability ([3]; first compound 1.265 µM)	relative viability ([3]; first compound 4 µM)	relative viability ([3]; first compound 12.65 µM)	relative viability ([3]; first compound 40 µM)	relative viability ([4]; first compound 0.04 µM)	relative viability ([4]; first compound 0.1265 µM)	relative viability ([4]; first compound 0.4 µM)	relative viability ([4]; first compound 1.265 µM)	relative viability ([4]; first compound 4 µM)	relative viability ([2]; first compound 1.265 µM)
NCI-H1975	0.322	0.315	0.236	0.301	0.265	0.373	0.418	0.361	0.352	0.678	0.718	0.62	0.659	0.626	0.837	0.855	0.882	0.837	1.13	–
NCI-H1651	0.595	0.596	0.48	0.553	0.516	0.296	0.319	0.281	0.186	0.605	0.744	0.705	0.674	0.764	0.575	0.65	0.49	0.271	0.275	0.237
LCLC-97TM1	0.148	0.191	0.134	0.185	0.218	0.824	0.971	0.823	0.748	0.59	0.653	–	0.553	0.619	0.776	1.16	1.11	0.674	0.87	–
NCI-H727	0.354	0.435	–	–	0.423	0.36	0.42	0.445	0.25	0.587	0.641	–	0.641	0.511	0.768	0.919	0.758	0.797	0.416	0.251
NCI-H1355	0.406	0.427	–	0.5	0.514	0.78	0.759	0.601	0.76	0.465	0.426	0.281	0.407	0.404	0.938	1.13	0.911	1.02	0.973	0.602
HOP-62	0.865	0.651	0.449	0.619	0.935	0.561	0.625	0.636	0.567	0.856	0.788	0.826	0.809	0.915	0.862	1.06	0.937	0.791	0.89	0.538
NCI-H2085	0.524	0.406	0.454	0.575	0.467	0.242	0.222	0.278	0.166	0.822	0.733	0.397	0.79	0.921	0.814	0.779	0.74	0.649	0.501	0.269
